Source: patent US6451325B1, “Adjuvant formulation comprising a submicron oil droplet emulsion” (Chiron Corporation, priority 1989, dated 2002)

Tested on: influenza HA (Parke-Davis FLUOGEN)
Parameters: species or system Goats
Settings: in vivo

CCCCCCCCCCCCCCCC(=O)OC[C@H](COP(=O)(O)OCCNC(=O)[C@H](C)NC(=O)CC[C@@H](NC(=O)[C@H](C)NC(=O)[C@@H](C)O[C@H]1[C@H](O)[C@@H](CO)OC(O)[C@@H]1NC(C)=O)C(N)=O)OC(=O)CCCCCCCCCCCCCCC (stereo partly drawn) [MTP-PE in PBS, N-acetylmuramyl-L-alanyl-D-isoglutaminyl-L-alanine-2-[1,2-dipalmitoyl-sn-glycero-3-(hydroxyphosphoryloxy)]ethylamide] was tested. Which “stimulation of antibody titer after one immunization” value did it give?
Its value is “no stimulation of antibody titer”.
